Laboratory results reported in patent US8058306B2, “Phenyl pyrrole aminoguanidine derivatives” (Action Pharma A/S, priority 2006, dated 2011).
Several values for one entry are separate records, joined by “and”; a condition that tells them apart may be missing. Equal entries are not always repeated. Entries after “also recorded” stand apart in the source; their conditions may differ. Where two headings read alike, the source gives them in different places.

Test: Plasma kinetics in rat following intravenous and oral administration
Type: in vivo, Sprague Dawley rats
Conditions: male rats
Method: This study determined the intravenous pharmacokinetics and oral bioavailability of compound 1 of the invention (see FIG. 1A, structure no. 1), compound 2 of the invention (see FIG. 1D, structure no. 19) and compound 3 of the invention (see FIG. 1I, structure no. 53) following administration to Sprague Dawley rats at a dose level of 10 mg/kg.
Six groups of 3 male rats received either a single intravenous or single oral administration of compound 1, 2 or 3 of the invention at a dose level of 10 mg/kg. Blood samples were obtained at various times after dosing. Plasma samples were analysed for unchanged test item using a suitable LC-MS/MS method. Pharmacokinetic parameters were estimated from individual plasma concentrations.
Eighteen male rats each received either a single intravenous or a single oral administration of either compound 1, 2 or 3 at a dose level of 10 mg/kg. The formulation was orally administered to each animal by gastric gavage and intravenously administered to each animal via a tail vein. The dose was administered at a dose volume of 5 mL/kg. The formulations were administered to each animal according to the details in the following table:
Blood samples (ca 0.3 mL) were removed from the femoral vein of each animal into tubes containing lithium heparin as anticoagulant.
Blood samples were collected from 3 rats at the following times after dose administration: • 3, 6, 15, 45 min and 1.5, 2.5, 4, 6, 8, 24 h post dose. Oral Administration
Blood samples were collected from 3 rats at the following times after dose administration: • 5, 15, 45 min and 1.5, 2.5, 4, 6, 8, 24 h post dose. Processing of Blood Samples
Pharmacokinetic parameters of compound 1, 2 and 3 were derived by non-compartmental analysis using WinNonLin Pro version 5.0.1 (Pharsight 2005). The following parameters were derived, where appropriate, from the individual plasma concentration versus time profiles:
• F % The absolute oral bioavailability calculated as [AUC0-t (oral)*Dose(iv)/AUC0-t (iv)*Dose (oral)]*100 based on mean values derived after oral and intravenous administration Consideration was given to the estimation of λz and corresponding t1/2 values. Three or more points are required within the terminal phase for λz and t1/2 to be estimated. The following additional variables were tabulated to aid identification of potentially unreliable estimates of t1/2 and AUC:
Pharmacokinetic parameters were reported as geometric mean except Tmax which was reported as the median. Geometric coefficient of variation was calculated as: […]
Actual sampling times were used for all calculations of pharmacokinetic parameters. Plasma concentrations that were below the limit of quantification were taken as zero for the pharmacokinetic analysis.

[1] = oral 10 mg/kg, individual animals, acetate, 10 mg/kg

N=C(N)NN=CC=Cc1cccn1-c1ccc(Cl)cc1 [Compound 1, [1-(4-chlorophenyl)-1H-pyrrol-2-yl-allylideneamino]guanidinium acetate] gave a Cmax (male, Sprague Dawley, rat, plasma, po, 10 mg/kg, oral 10 mg/kg, Arithmetic Mean, read-out: Cmax) of 104 ng/mL, a Tmax (male, Sprague Dawley, rat, plasma, po, 10 mg/kg, oral 10 mg/kg, Arithmetic Mean, read-out: tmax) of 6.65 h and an AUC(0-t) (male, Sprague Dawley, rat, plasma, po, 10 mg/kg, oral 10 mg/kg, Geometric mean, read-out: AUC0-t) of 1340 ng·h/mL. It also gave a Cmax (male, Sprague Dawley, rat, plasma, po, 10 mg/kg, oral 10 mg/kg, Geometric mean, read-out: Cmax) of 104 ng/mL, a Tmax (male, Sprague Dawley, rat, plasma, po, 10 mg/kg, oral 10 mg/kg, Geometric mean, read-out: tmax) of 6.34 h and an AUC(0-t) (male, Sprague Dawley, rat, plasma, po, 10 mg/kg, oral 10 mg/kg, Median, read-out: AUC0-t) of 1460 ng·h/mL. The Cmax (male, Sprague Dawley, rat, plasma, po, 10 mg/kg, oral 10 mg/kg, Median, read-out: Cmax) was 104 ng/mL, the Tmax (male, Sprague Dawley, rat, plasma, po, 10 mg/kg, oral 10 mg/kg, Median, read-out: tmax) was 7.97 h and the AUC(0-inf) (male, Sprague Dawley, rat, plasma, po, 10 mg/kg, oral 10 mg/kg, individual animals) was 1130 ng·h/mL. It also gave an AUC(0-t) (male, Sprague Dawley, rat, plasma, po, 10 mg/kg, oral 10 mg/kg, individual animals, read-out: AUC0-t) of 1500 ng·h/mL, a Cmax (male, Sprague Dawley, rat, plasma, po, 10 mg/kg, oral 10 mg/kg, individual animals, read-out: Cmax) of 106 ng/mL and an MRT (male, Sprague Dawley, rat, plasma, po, 10 mg/kg, oral 10 mg/kg, individual animals, read-out: MRT) of 7.86 h. For the same compound, the half-life (male, Sprague Dawley, rat, plasma, po, 10 mg/kg, oral 10 mg/kg, individual animals, read-out: t1/2 (converted)) was 4.61 h, the Tmax (male, Sprague Dawley, rat, plasma, po, 10 mg/kg, oral 10 mg/kg, individual animals, read-out: tmax) was 7.97 h and the Tmax (male, Sprague Dawley, rat, plasma, po, 10 mg/kg, oral 10 mg/kg, from mean plasma concentrations, read-out: time post dose at which maximum plasma concentration was observed (tmax)) was 8 h. It also gave a half-life (male, Sprague Dawley, rat, plasma, po, 10 mg/kg, oral 10 mg/kg, read-out: apparent terminal half-life (converted)) of 4.61 h, a concentration at 0.08 h (male, Sprague Dawley, rat, plasma, po, 10 mg/kg, single oral 10 mg/kg, 0.08 h, individual animals, LLOQ 2.50 (Table X: * 5.0, ** 25, diluted samples), read-out: Sample Concentration in plasma) of 2.66 ng/mL and a concentration at 0.08 h (male, Sprague Dawley, rat, plasma, po, 10 mg/kg, single oral 10 mg/kg, 0.08 h, mean, read-out: Mean Concentration in plasma) of 2.66 ng/mL. It also gave a concentration at 0.25 h (male, Sprague Dawley, rat, plasma, po, 10 mg/kg, single oral 10 mg/kg, 0.25 h, individual animals, read-out: Sample Concentration in plasma) of 6.53 ng/mL, a concentration at 0.25 h (male, Sprague Dawley, rat, plasma, po, 10 mg/kg, single oral 10 mg/kg, 0.25 h, mean of 3, read-out: Mean Concentration in plasma) of 7.29 ng/mL and a concentration at 0.75 h (male, Sprague Dawley, rat, plasma, po, 10 mg/kg, single oral 10 mg/kg, 0.75 h, mean of 3, read-out: Mean Concentration in plasma) of 17.3 ng/mL. The concentration at 1.5 h (male, Sprague Dawley, rat, plasma, po, 10 mg/kg, single oral 10 mg/kg, 1.5 h, mean of 3, read-out: Mean Concentration in plasma) was 39.1 ng/mL, the concentration at 2.5 h (male, Sprague Dawley, rat, plasma, po, 10 mg/kg, single oral 10 mg/kg, 2.5 h, individual animals, read-out: Sample Concentration in plasma) was 65.9 ng/mL and the concentration at 2.5 h (male, Sprague Dawley, rat, plasma, po, 10 mg/kg, single oral 10 mg/kg, 2.5 h, mean of 3, read-out: Mean Concentration in plasma) was 60.1 ng/mL. The concentration at 4 h (male, Sprague Dawley, rat, plasma, po, 10 mg/kg, single oral 10 mg/kg, 4 h, individual animals, read-out: Sample Concentration in plasma) was 102 ng/mL, the concentration at 4 h (male, Sprague Dawley, rat, plasma, po, 10 mg/kg, single oral 10 mg/kg, 4 h, mean of 3, read-out: Mean Concentration in plasma) was 90.3 ng/mL and the concentration at 6 h (male, Sprague Dawley, rat, plasma, po, 10 mg/kg, single oral 10 mg/kg, 6 h, individual animals, read-out: Sample Concentration in plasma) was 72.3 ng/mL. It also gave a concentration at 6 h (male, Sprague Dawley, rat, plasma, po, 10 mg/kg, single oral 10 mg/kg, 6 h, mean of 3, read-out: Mean Concentration in plasma) of 86.5 ng/mL, a concentration at 8 h (male, Sprague Dawley, rat, plasma, po, 10 mg/kg, single oral 10 mg/kg, 8 h, individual animals, LLOQ 2.50, read-out: Sample Concentration in plasma) of 68.8 ng/mL and a concentration at 8 h (male, Sprague Dawley, rat, plasma, po, 10 mg/kg, single oral 10 mg/kg, 8 h, mean, LLOQ 2.50, read-out: Mean Concentration in plasma) of 92.9 ng/mL. For the same compound, the concentration at 24 h (male, Sprague Dawley, rat, plasma, po, 10 mg/kg, single oral 10 mg/kg, 24 h, individual animals, LLOQ 2.50, read-out: Sample Concentration in plasma) was 5.35 ng/mL, the concentration at 24 h (male, Sprague Dawley, rat, plasma, po, 10 mg/kg, single oral 10 mg/kg, 24 h, mean, LLOQ 2.50, read-out: Mean Concentration in plasma) was 7.68 ng/mL and the “mean absorption time (MAT)” value (oral 10 mg/kg) was 2.10 h. For the same compound, the MAT (oral 10 mg/kg, individual animals) was 2.10 h, the AUC(0-t) [1] was 1094 ng·h/mL and 1460 ng·h/mL and the Cmax [1] was 102 ng/mL. For the same compound, the Tmax [1] was 4.00 h and 7.98 h, the “maximum observed plasma concentration, mean value” (oral 10 mg/kg, at tmax) was 92.9 ng/mL and the “Sample Concentration in plasma” value (single intravenous 10 mg/kg, 0.05 h, individual animals, acetate, 10 mg/kg) was 1650 ng/mL and 3630 ng/mL and 1460 ng/mL. The “Sample Concentration in plasma” value (single intravenous 10 mg/kg, 0.1 h, individual animals, acetate, 10 mg/kg) was 1220 ng/mL and 1200 ng/mL, the “Sample Concentration in plasma” value (single intravenous 10 mg/kg, 0.25 h, individual animals, acetate, 10 mg/kg) was 830 ng/mL and 696 ng/mL and the “Sample Concentration in plasma” value (single intravenous 10 mg/kg, 0.75 h, individual animals, acetate, 10 mg/kg) was 332 ng/mL and 402 ng/mL. The “Sample Concentration in plasma” value (single intravenous 10 mg/kg, 1.5 h, individual animals, acetate, 10 mg/kg) was 236 ng/mL and 340 ng/mL, the “Sample Concentration in plasma” value (single intravenous 10 mg/kg, 2.5 h, individual animals, acetate, 10 mg/kg) was 202 ng/mL and 259 ng/mL and the “Sample Concentration in plasma” value (single intravenous 10 mg/kg, 4 h, individual animals, acetate, 10 mg/kg) was 208 ng/mL and 238 ng/mL. For the same compound, the “Sample Concentration in plasma” value (single intravenous 10 mg/kg, 6 h, individual animals, acetate, 10 mg/kg) was 172 ng/mL and 168 ng/mL, the “Sample Concentration in plasma” value (single intravenous 10 mg/kg, 8 h, individual animals, LLOQ 2.50, acetate, 10 mg/kg) was 151 ng/mL and 135 ng/mL and 5.04 ng/mL and the “Sample Concentration in plasma” value (single intravenous 10 mg/kg, 24 h, individual animals, LLOQ 2.50, acetate, 10 mg/kg) was 13.2 ng/mL and 16.8 ng/mL and 30.7 ng/mL. The adverse effects (single intravenous or oral administration, 10 mg/kg, acetate) was “No adverse effects; also recorded: No adverse affects”, the “Sample Concentration in plasma” value (single oral 10 mg/kg, 0.08 h, individual animals, LLOQ 2.50 (Table X: * 5.0, ** 25, diluted samples), acetate, 10 mg/kg) was “*<LLOQ; also recorded: **<LLOQ” and the “Sample Concentration in plasma” value (single oral 10 mg/kg, 0.25 h, individual animals, acetate, 10 mg/kg) was 5.92 ng/mL and 9.43 ng/mL. The “Sample Concentration in plasma” value (single oral 10 mg/kg, 0.75 h, individual animals, acetate, 10 mg/kg) was 11.8 ng/mL and 15.9 ng/mL and 24.1 ng/mL, the “Sample Concentration in plasma” value (single oral 10 mg/kg, 1.5 h, individual animals, acetate, 10 mg/kg) was 20.5 ng/mL and 52.1 ng/mL and 44.6 ng/mL and the “Sample Concentration in plasma” value (single oral 10 mg/kg, 2.5 h, individual animals, acetate, 10 mg/kg) was 57.1 ng/mL and 57.2 ng/mL. For the same compound, the “Sample Concentration in plasma” value (single oral 10 mg/kg, 4 h, individual animals, acetate, 10 mg/kg) was 79.4 ng/mL and 89.4 ng/mL, the “Sample Concentration in plasma” value (single oral 10 mg/kg, 6 h, individual animals, acetate, 10 mg/kg) was 98.4 ng/mL and 88.8 ng/mL and the “Sample Concentration in plasma” value (single oral 10 mg/kg, 8 h, individual animals, LLOQ 2.50, acetate, 10 mg/kg) was 104 ng/mL and 106 ng/mL. For the same compound, the “Sample Concentration in plasma” value (single oral 10 mg/kg, 24 h, individual animals, LLOQ 2.50, acetate, 10 mg/kg) was 7.50 ng/mL and 10.2 ng/mL.
